Measured values from PubChem BioAssay (NCI).
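Exposure lasted 48 hours, with cells grown in 96-well plates and compounds tested at five concentrations. GI50 marks 50% less growth. TGI denotes the concentration required for complete inhibition of growth.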

How the values were obtained:
Assay in all cases: growth of human tumour cells (NCI), 48 h
HCC-2998 colon = tested on: HCC-2998 colon
OVCAR-3 ovarian = tested on: OVCAR-3 ovarian
IGROV1 ovarian = tested on: IGROV1 ovarian
A549 NSCLC = tested on: A549 NSCLC
PC-3 prostate = tested on: PC-3 prostate
NCI-H522 lung = tested on: NCI-H522 lung
CCRF-CEM leukemia = tested on: CCRF-CEM leukemia
SN12C renal = tested on: SN12C renal

SMILES	TGI (HCC-2998 colon)	TGI (OVCAR-3 ovarian)	TGI (IGROV1 ovarian)	TGI (A549 NSCLC)	TGI (PC-3 prostate)	TGI (NCI-H522 lung)	TGI (CCRF-CEM leukemia)	TGI (SN12C renal)	GI50 (HCC-2998 colon)	GI50 (OVCAR-3 ovarian)	GI50 (IGROV1 ovarian)	GI50 (A549 NSCLC)	GI50 (PC-3 prostate)	GI50 (NCI-H522 lung)	GI50 (CCRF-CEM leukemia)	GI50 (SN12C renal)
OCCNc1ncnc2c1ncn2C1OC(CO)C(O)C1O (configuration not stated)	> 100 µM	> 100 µM	> 100 µM	> 100 µM	> 100 µM	> 100 µM	> 100 µM	> 100 µM								
Nc1nc(N)c2c(ccc3nccc32)[nH]1	> 91 µM	36.6 µM	9.35 µM	> 100 µM	> 64.2 µM	24.3 µM	> 100 µM	> 68.6 µM	9.79 µM	7.68 µM	2.34 µM	0.755 µM	1.63 µM	4.88 µM	1.57 µM	6.91 µM
CN(C)C(=O)c1cc2cnc(Nc3ccc(-c4csc5c(=O)cc(N6CCNCC6)oc45)cc3)nc2n1C1CCCC1	2.03 µM	2.72 µM	6.12 µM	3.81 µM	4.93 µM	2.55 µM		16.8 µM	0.551 µM	0.871 µM	0.523 µM	1.16 µM	0.677 µM	0.473 µM	0.433 µM	0.557 µM
Cc1cc2c3ccccc3ccc2[n+]2ccccc12	19.7 µM	11.8 µM	> 86.2 µM	> 76.9 µM	32.1 µM	13.1 µM	35.2 µM	7.29 µM	4.71 µM	2.28 µM	10 µM	0.628 µM	3.38 µM	2.6 µM	4.72 µM	1.4 µM
O=C1c2cc3c(cc2[C@@H]2[C@H]1c1ccc([N+](=O)[O-])cc1C(=O)N2CCCCl)OCO3	0.568 µM	0.456 µM	> 100 µM	> 100 µM	> 44.5 µM	9.64 µM			0.0164 µM	0.073 µM	< 0.01 µM	< 0.01 µM	< 0.01 µM	< 0.01 µM		< 0.01 µM
O=C(OCC1OC(OC(=O)c2cc(O)c(O)c(OC(=O)c3cc(O)c(O)c(O)c3)c2)C(OC(=O)c2cc(O)c(O)c(OC(=O)c3cc(O)c(O)c(O)c3)c2)C(OC(=O)c2cc(O)c(O)c(OC(=O)c3cc(O)c(O)c(O)c3)c2)C1OC(=O)c1cc(O)c(O)c(OC(=O)c2cc(O)c(O)c(O)c2)c1)c1cc(O)c(O)c(OC(=O)c2cc(O)c(O)c(O)c2)c1 (configuration not stated)	46 µM	31.2 µM		> 50 µM	> 50 µM	29.7 µM	> 50 µM	29.8 µM	11.2 µM	9.99 µM		20.7 µM	10.1 µM	8.71 µM	18.2 µM	11.4 µM
ClC1=NC(Cl)C(Cl)=N/C1=N\c1ncn[nH]1 (configuration not stated)	4.28 µM	3.4 µM	4.63 µM	34.4 µM		3.55 µM		3.31 µM	2.17 µM	1.95 µM	2.23 µM	17.1 µM		1.68 µM		1.76 µM
Cc1ncc(C(=O)Nc2ccc(CN3CCN(C)CC3)c(C(F)(F)F)c2)cc1C#Cc1cnc(N)c2ncccc12		4.96 µM		2.69 µM	2.8 µM	3.96 µM	> 20.6 µM	1.91 µM		1.32 µM		0.391 µM	1.22 µM	1.05 µM	0.558 µM	0.221 µM
O=C1OC(C2=CC(=O)c3ccccc3C2=O)C(Cl)=C1Cl (configuration not stated)	61.3 µM	> 100 µM		> 100 µM	75.5 µM	39.3 µM	50.9 µM	59 µM								
CCN(C(=O)CCl)C(C)(C)C(SSSC(c1ccc(Cl)cc1)C(C)(C)N(CC)C(=O)CCl)c1ccc(Cl)cc1 (configuration not stated)	26.6 µM	21.6 µM	31.5 µM	31.1 µM		3.87 µM	5.93 µM	26.4 µM	11.1 µM	8.46 µM	10.9 µM	15 µM		2.06 µM	2.45 µM	12.5 µM
COc1ccc2c(c1)sc1nc(-c3ccccc3)c(-c3ccc(O)c(OC)c3)n12	> 100 µM	63.8 µM	> 100 µM	> 100 µM	> 100 µM	> 100 µM		> 100 µM	> 100 µM	10.1 µM	> 100 µM	9.91 µM	26.3 µM	15 µM		80.4 µM
O=Cc1ccc(Oc2c3ccccc3nc3occc23)cc1		11.3 µM	> 100 µM	50.5 µM	58.6 µM	> 100 µM	35.4 µM	24.2 µM		2.59 µM	24.6 µM	22.4 µM	19.5 µM	49.5 µM	13.8 µM	7.73 µM
NC(CSc1nc2ccccn2c1[N+](=O)[O-])C(=O)O (configuration not stated)	> 100 µM	> 100 µM	> 100 µM	> 100 µM	> 100 µM	> 100 µM		> 100 µM								
